Test results taken from paper PMC8744458 (Beilstein Journal of Organic Chemistry, 2022).
Entries after “also recorded” stand apart in the source; their conditions may differ. No end group written: not given here.

Tests used:
[1] = on-resin intramolecular Suzuki-Miyaura biaryl stapling (i,i+4) between 6- or 7-bromo-Trp and aryl boronic acid/Bpin side chain; Pd2(dba)3 0.2 eq, sSPhos 0.4 eq, KF 4 eq, microwave 120 C 30 min; then TFA/TIS/H2O cleavage; details: the molecule shown is the open-chain precursor, DME/EtOH/H2O 9:9:2, 16.7 mM, 0.5 h
Proteinase K = Proteinase K (2.5 µg mL−1) in Na2HPO4 buffer (100 mM, pH 7.4); details: 25 °C, up to 120 min
[2] = not given; remark: listed apart in the source
[3] = not given; remark: listed apart in the source
β-catenin = target: T1, β-catenin (Homo sapiens, UniProt P35222); assay: direct fluorescence polarisation
T1 chain: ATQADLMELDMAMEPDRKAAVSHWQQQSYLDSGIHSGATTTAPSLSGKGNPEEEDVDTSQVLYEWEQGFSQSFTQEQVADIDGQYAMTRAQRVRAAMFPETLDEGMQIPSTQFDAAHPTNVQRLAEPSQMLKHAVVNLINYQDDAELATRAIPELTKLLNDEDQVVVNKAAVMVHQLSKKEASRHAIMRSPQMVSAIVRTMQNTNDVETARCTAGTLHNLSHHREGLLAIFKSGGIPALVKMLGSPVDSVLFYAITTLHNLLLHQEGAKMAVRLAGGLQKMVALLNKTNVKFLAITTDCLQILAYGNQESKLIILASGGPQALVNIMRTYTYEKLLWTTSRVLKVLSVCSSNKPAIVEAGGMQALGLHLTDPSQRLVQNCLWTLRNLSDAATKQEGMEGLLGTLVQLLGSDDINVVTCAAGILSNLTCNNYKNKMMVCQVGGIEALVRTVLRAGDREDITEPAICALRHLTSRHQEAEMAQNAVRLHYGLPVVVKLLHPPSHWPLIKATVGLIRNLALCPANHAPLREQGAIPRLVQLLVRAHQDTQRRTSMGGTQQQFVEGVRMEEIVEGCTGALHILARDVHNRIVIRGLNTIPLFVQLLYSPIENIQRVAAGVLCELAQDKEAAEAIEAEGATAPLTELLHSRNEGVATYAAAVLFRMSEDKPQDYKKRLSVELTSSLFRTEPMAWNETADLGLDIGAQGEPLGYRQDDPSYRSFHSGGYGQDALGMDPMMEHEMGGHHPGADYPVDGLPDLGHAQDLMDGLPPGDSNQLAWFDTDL

`CC[C@H](C)[C@H](NC(=O)[C@H](Cc1c[nH]c2cc(Br)ccc12)NC(=O)[C@H](CCC(=O)OC(C)(C)C)NC(=O)[C@@H]1CCCN1C(=O)[C@H](CC(=O)NC(c1ccccc1)(c1ccccc1)c1ccccc1)NC(=O)[C@H](CCC(=O)OC(C)(C)C)NC(C)=O)C(=O)N[C@@H](CC(C)C)C(=O)N[C@@H](CC(=O)OC(C)(C)C)C(=O)N[C@@H](Cc1ccc(B2OC(C)(C)C(C)(C)O2)cc1)C(=O)N[C@@H](Cc1cn(C(c2ccccc2)(c2ccccc2)c2ccccc2)cn1)C(=O)N[C@H](C(=O)N[C@@H](CCC(=O)NC(c1ccccc1)(c1ccccc1)c1ccccc1)C(=O)N[C@@H](CCCNC(=N)NS(=O)(=O)c1c(C)c(C)c2c(c1C)CC(C)(C)O2)C(=O)N[C@H](C(=O)N[C@@H](CCSC)C(N)=O)C(C)C)C(C)C` showed a ring closure, overall yield ([1]; 24-membered ring) of 4%.

`CC[C@H](C)[C@H](NC(=O)[C@H](Cc1c[nH]c2cc(Br)ccc12)NC(=O)[C@H](CCC(=O)OC(C)(C)C)NC(=O)[C@@H]1CCCN1C(=O)[C@H](CC(=O)NC(c1ccccc1)(c1ccccc1)c1ccccc1)NC(=O)[C@H](CCC(=O)OC(C)(C)C)NC(C)=O)C(=O)N[C@@H](CC(C)C)C(=O)N[C@@H](CC(=O)OC(C)(C)C)C(=O)N[C@@H](CCNC(=O)c1ccc(B(O)O)cc1)C(=O)N[C@@H](Cc1cn(C(c2ccccc2)(c2ccccc2)c2ccccc2)cn1)C(=O)N[C@H](C(=O)N[C@@H](CCC(=O)NC(c1ccccc1)(c1ccccc1)c1ccccc1)C(=O)N[C@@H](CCCNC(=N)NS(=O)(=O)c1c(C)c(C)c2c(c1C)CC(C)(C)O2)C(=O)N[C@H](C(=O)N[C@@H](CCSC)C(N)=O)C(C)C)C(C)C` gave a ring closure, overall yield ([1]; 27-membered ring) of 8%.

Molecule `CC[C@H](C)[C@H](NC(=O)[C@H](Cc1c[nH]c2c(Br)cccc12)NC(=O)[C@H](CCC(=O)OC(C)(C)C)NC(=O)[C@@H]1CCCN1C(=O)[C@H](CC(=O)NC(c1ccccc1)(c1ccccc1)c1ccccc1)NC(=O)[C@H](CCC(=O)OC(C)(C)C)NC(C)=O)C(=O)N[C@@H](CC(C)C)C(=O)N[C@@H](CC(=O)OC(C)(C)C)C(=O)N[C@@H](CCCNC(=O)c1ccc(B(O)O)cc1)C(=O)N[C@@H](Cc1cn(C(c2ccccc2)(c2ccccc2)c2ccccc2)cn1)C(=O)N[C@H](C(=O)N[C@@H](CCC(=O)NC(c1ccccc1)(c1ccccc1)c1ccccc1)C(=O)N[C@@H](CCCNC(=N)NS(=O)(=O)c1c(C)c(C)c2c(c1C)CC(C)(C)O2)C(=O)N[C@H](C(=O)N[C@@H](CCSC)C(N)=O)C(C)C)C(C)C` has a ring closure, overall yield ([1]; 27-membered ring) of 8%.

Work on `CC[C@H](C)[C@H](NC(=O)[C@H](Cc1c[nH]c2c(Br)cccc12)NC(=O)[C@H](CCC(=O)OC(C)(C)C)NC(=O)[C@@H]1CCCN1C(=O)[C@H](CC(=O)NC(c1ccccc1)(c1ccccc1)c1ccccc1)NC(=O)[C@H](CCC(=O)OC(C)(C)C)NC(C)=O)C(=O)N[C@@H](CC(C)C)C(=O)N[C@@H](CC(=O)OC(C)(C)C)C(=O)N[C@@H](Cc1ccc(B2OC(C)(C)C(C)(C)O2)cc1)C(=O)N[C@@H](Cc1cn(C(c2ccccc2)(c2ccccc2)c2ccccc2)cn1)C(=O)N[C@H](C(=O)N[C@@H](CCC(=O)NC(c1ccccc1)(c1ccccc1)c1ccccc1)C(=O)N[C@@H](CCCNC(=N)NS(=O)(=O)c1c(C)c(C)c2c(c1C)CC(C)(C)O2)C(=O)N[C@H](C(=O)N[C@@H](CCSC)C(N)=O)C(C)C)C(C)C` yielded a ring closure, overall yield ([1]; 23-membered ring) of 3%.

Molecule `CC[C@H](C)[C@H](NC(=O)[C@H](Cc1c[nH]c2c(Br)cccc12)NC(=O)[C@H](CCC(=O)OC(C)(C)C)NC(=O)[C@@H]1CCCN1C(=O)[C@H](CC(=O)NC(c1ccccc1)(c1ccccc1)c1ccccc1)NC(=O)[C@H](CCC(=O)OC(C)(C)C)NC(C)=O)C(=O)N[C@@H](CC(C)C)C(=O)N[C@@H](CC(=O)OC(C)(C)C)C(=O)N[C@@H](CCCCNC(=O)c1ccc(B(O)O)cc1)C(=O)N[C@@H](Cc1cn(C(c2ccccc2)(c2ccccc2)c2ccccc2)cn1)C(=O)N[C@H](C(=O)N[C@@H](CCC(=O)NC(c1ccccc1)(c1ccccc1)c1ccccc1)C(=O)N[C@@H](CCCNC(=N)NS(=O)(=O)c1c(C)c(C)c2c(c1C)CC(C)(C)O2)C(=O)N[C@H](C(=O)N[C@@H](CCSC)C(N)=O)C(C)C)C(C)C` has a ring closure, overall yield ([1]; 28-membered ring) of 11%.

Molecule `CC[C@H](C)[C@H](NC(=O)[C@H](Cc1c[nH]c2cc(Br)ccc12)NC(=O)[C@H](CCC(=O)OC(C)(C)C)NC(=O)[C@@H]1CCCN1C(=O)[C@H](CC(=O)NC(c1ccccc1)(c1ccccc1)c1ccccc1)NC(=O)[C@H](CCC(=O)OC(C)(C)C)NC(C)=O)C(=O)N[C@@H](CC(C)C)C(=O)N[C@@H](CC(=O)OC(C)(C)C)C(=O)N[C@@H](CCCNC(=O)c1ccc(B(O)O)cc1)C(=O)N[C@@H](Cc1cn(C(c2ccccc2)(c2ccccc2)c2ccccc2)cn1)C(=O)N[C@H](C(=O)N[C@@H](CCC(=O)NC(c1ccccc1)(c1ccccc1)c1ccccc1)C(=O)N[C@@H](CCCNC(=N)NS(=O)(=O)c1c(C)c(C)c2c(c1C)CC(C)(C)O2)C(=O)N[C@H](C(=O)N[C@@H](CCSC)C(N)=O)C(C)C)C(C)C` has a ring closure, overall yield ([1]; 28-membered ring) of 8%.

`CC[C@H](C)[C@H](NC(=O)[C@H](Cc1c[nH]c2cc(Br)ccc12)NC(=O)[C@H](CCC(=O)OC(C)(C)C)NC(=O)[C@@H]1CCCN1C(=O)[C@H](CC(=O)NC(c1ccccc1)(c1ccccc1)c1ccccc1)NC(=O)[C@H](CCC(=O)OC(C)(C)C)NC(C)=O)C(=O)N[C@@H](CC(C)C)C(=O)N[C@@H](CC(=O)OC(C)(C)C)C(=O)N[C@@H](CCCCNC(=O)c1ccc(B(O)O)cc1)C(=O)N[C@@H](Cc1cn(C(c2ccccc2)(c2ccccc2)c2ccccc2)cn1)C(=O)N[C@H](C(=O)N[C@@H](CCC(=O)NC(c1ccccc1)(c1ccccc1)c1ccccc1)C(=O)N[C@@H](CCCNC(=N)NS(=O)(=O)c1c(C)c(C)c2c(c1C)CC(C)(C)O2)C(=O)N[C@H](C(=O)N[C@@H](CCSC)C(N)=O)C(C)C)C(C)C` gave a ring closure, overall yield ([1]; 29-membered ring) of 10%.

`CC[C@H](C)[C@H](NC(=O)[C@H](Cc1c[nH]c2c(Br)cccc12)NC(=O)[C@H](CCC(=O)OC(C)(C)C)NC(=O)[C@@H]1CCCN1C(=O)[C@H](CC(=O)NC(c1ccccc1)(c1ccccc1)c1ccccc1)NC(=O)[C@H](CCC(=O)OC(C)(C)C)NC(C)=O)C(=O)N[C@@H](CC(C)C)C(=O)N[C@@H](CC(=O)OC(C)(C)C)C(=O)N[C@@H](CCCCNC(=O)CCc1ccc(B(O)O)cc1)C(=O)N[C@@H](Cc1cn(C(c2ccccc2)(c2ccccc2)c2ccccc2)cn1)C(=O)N[C@H](C(=O)N[C@@H](CCC(=O)NC(c1ccccc1)(c1ccccc1)c1ccccc1)C(=O)N[C@@H](CCCNC(=N)NS(=O)(=O)c1c(C)c(C)c2c(c1C)CC(C)(C)O2)C(=O)N[C@H](C(=O)N[C@@H](CCSC)C(N)=O)C(C)C)C(C)C` showed a ring closure, overall yield ([1]; 30-membered ring) of 14%.

In the case of Ac-ENPEWILDKHVQRVM-NH2, the cleaved bond (Proteinase K) is reported as “Leu-Asp; also recorded: Lys-His; also recorded: Gln-Arg”.

For “Ac-Glu-Asn-Pro-Glu-Trp-Ile-Leu-Asp-Lys-His-Val-Gln-Arg-Val-Met-NH2 (Trp and Lys drawn as structures, side chains cross-linked by the 7-aryl-Trp staple)”, the cleaved bond (Proteinase K) was “Gln-Arg” and the not cleaved (Proteinase K) was “not hydrolysed after leucine within 120 min; also recorded: not hydrolysed after lysine within 120 min”.

In the case of Ac-ENPESILDEHVQRVM-NH2, the MRE (deg cm2 dmol-1) is reported as -2860, the [θ]222 (deg cm2 dmol-1) [2] is reported as -42900 and the θ222 [3] is reported as -4.29 mdeg.

With `CC[C@H](C)[C@H](NC(=O)[C@H](Cc1c[nH]c2c(Br)cccc12)NC(=O)[C@H](CCC(=O)OC(C)(C)C)NC(=O)[C@@H]1CCCN1C(=O)[C@H](CC(=O)NC(c1ccccc1)(c1ccccc1)c1ccccc1)NC(=O)[C@H](CCC(=O)OC(C)(C)C)NC(C)=O)C(=O)N[C@@H](CC(C)C)C(=O)N[C@@H](CC(=O)OC(C)(C)C)C(=O)N[C@@H](CCNC(=O)c1ccc(B(O)O)cc1)C(=O)N[C@@H](Cc1cn(C(c2ccccc2)(c2ccccc2)c2ccccc2)cn1)C(=O)N[C@H](C(=O)N[C@@H](CCC(=O)NC(c1ccccc1)(c1ccccc1)c1ccccc1)C(=O)N[C@@H](CCCNC(=N)NS(=O)(=O)c1c(C)c(C)c2c(c1C)CC(C)(C)O2)C(=O)N[C@H](C(=O)N[C@@H](CCSC)C(N)=O)C(C)C)C(C)C` the ring closure, overall yield ([1]; 26-membered ring) was 9%.

PESILDEHVQRVLRT (also: FITC label, site not given here) [fAxWt (FITC-labelled axin CBD peptide) 467-481] showed a Kd (β-catenin) of 1190 nM.
